Assay results reported in publication PMC8447191, “Peptide Amphiphilic-Based Supramolecular Structures with Anti-HIV-1 Activity” (Bioconjugate Chemistry, 2021).
*1 amine or outer side, *2 acyl side, *3 side chain or, on linkers, in order; H or OH if unused. Where a SMILES comes first, the peptide text is derived from it. Side-chain parts run from the residue outwards. [ ]: non-standard residue; d: D form. The star is where a group is joined. PEG28 = NCCOCCOCCOCCOCCOCCOCCOCCOCCOCCOCCOCCOCCOCCOCCOCCOCCOCCOCCOCCOCCOCCOCCOCCOCCOCCOCCOCCOCCC(=O)O; X2 = CC(C)CCC[C@@H](C)[C@H]1CC[C@H]2[C@@H]3CC=C4C[C@@H](OC(=O)C*)CC[C@]4(C)[C@H]3CC[C@]12C; N(octadecyl)2 = CCCCCCCCCCCCCCCCCCN(CCCCCCCCCCCCCCCCCC)*; NHOctadecyl = CCCCCCCCCCCCCCCCCCN*; PEG4 = NCCOCCOCCOCCOCCC(=O)O; Suc = O=C(CCC(=O)[*:2])[*:1]

Columns and labels:
MTT cytotoxicity assay = format: cell-based; details: human, HeLa-env cells, PAs coassembled with 5% FAM, 40-2.3 μM, absorbance 560 nm
Protocol: The metabolic activity of the cell line, related to the cytotoxic effect of the compounds to be tested, is measured after 24 h using the MTT assay. This assay is based on the metabolic reduction of 3-(4,5-dimethylthiazol-2-yl)-2,5-diphenyl-2H-tetrazolium bromide (MTT), carried out by the mitochondrial enzyme succinate dehydrogenase, in a colored compound of blue color (formazan) that can be monitored by absorbance spectroscopy at 560 nm, allowing determination of the mitochondrial functionality of the treated cells.
The HeLa-env cell line is seeded in 96-well plates with an initial density of 15,000 cells per well in 100 μL of culture medium (Dulbecco’s modified Eagle’s medium, DMEM, with 10% FBS added) and incubated for 24 h at 37 °C and 5% CO2 to allow their adhesion. The cell monolayers are washed with PBS, and then 100 μL of PAs formulations (peptide amphiphiles coassembled with 5% FAM) are added in a concentration range from 40 μM to 2.3 μM. The plates are kept in incubation for further 24 h.
At the end of the incubation time, the cells are incubated for 3 h with 1 mg/mL of MTT, dissolved in culture medium without FBS, to allow the formation of formazan crystals. Subsequently, 100 μL of DMSO are added to wells, stirring the plates for 30 min at room temperature to facilitate the complete dissolution of the crystals. Finally, the absorbance at 560 nm is measured in a microplate reader.
The results are expressed as relative percentage between absorbance of PA formulations against absorbance of its DMSO controls and CC50 and CC25 values are taken from dose–response curves.

HIV-1BaL = format: cell-based; details: HIV-1BaL, TZM-bl cells; peptide 10-0.00061 μM for 1 h at 37 °C before virus; luciferase after 48 h; sigmoid fit; mean of triplicates
Protocol: HIV-1BaL[52] was provided by the NIH AIDS Research & Reference Reagent Program (http://www.aidsreagent.org/). Viral stock was prepared by passage through activated PBMCs[53] for 11 days.
Luciferase-reporter HeLa cells stably transfected to express CD4 and CCR5; TZM-bl cells[54]−[56] were grown in Dulbecco’s Minimal Essential Medium (DMEM) (Sigma-Aldrich, Inc., St. Louis, MO) containing 10% fetal calf serum (FCS), 2 mM L-glutamine, and antibiotics (100 U of penicillin/mL, 100 μg of streptomycin/mL) at 37 °C in an atmosphere containing 5% CO2.
All inhibition assays in cellular and tissue explants models were performed using a standardized amount of virus culture supernatant normalized for infectivity. TZM-bl cells were incubated with serial dilutions of peptides (from 10 μM to 0.00061 μM) for 1 h at 37 °C, prior to challenge with HIV-1BaL. Luciferase expression (r.l.u. values) was determined after 48 h. Alternatively, tissue explants were incubated with serial dilutions of peptide (from 100 μM to 0.1 μM) for 1 h before virus (10^4 TCID50/mL) was added for 2 h. Explants were then washed four times with PBS to remove unbound virus and drug. Colorectal explants were then transferred onto gelfoam rafts (Welbeck Pharmaceuticals, UK) and cultured for 15 days as described previously[57] […]. Explants were cultured for up to 15 days in the absence of peptide. Approximately 50% of the supernatants were harvested every 2–3 days and explants were re-fed with fresh media. The extent of viral replication in tissue explants was determined by measuring the p24 antigen concentration in supernatants (INNOTEST HIV antigen mAb; Fujirebio Europe, Belgium). The extent of inhibition by each peptide was calculated. The percentage of inhibition was normalized relative to the r.l.u, for TZM-bl cells, or p24, for tissue explants, values obtained for cells or explants cultured in the absence of virus (100% inhibition) and for cells or explants infected with virus in the absence of peptide (0% inhibition). Data are the mean (±SEM) of triplicates. When a dose–response curve was obtained, IC50 and, if possible, IC95 values were calculated from sigmoid curve fits (GraphPad Prism). For all curves, R^2 is >0.7.

[1] = Visual stability and aspect of POPC vesicles mixed with PAs (SAXS samples); format: physicochemical; details: POPC 20 mM + 2 mM PA, 0.5% DMSO
Protocol: In Figure 5A,B, we show the spectra corresponding to POPC 20 mM and POPC 20 mM + 2 mM PAs (all of them in the presence of 0.5% DMSO). The band centered at 1.2 nm^–1 and the secondary band at 3.2 nm^–1 were typical of unilamellar vesicles.[35]
The incorporation of PAs had some distinct consequences. The first and more obvious one is the distinction between stable and unstable systems.

[2] = parameters: method as in 2 sources, ref 31, 32 = [31]; doi:10.1007/BF02682570; Schick M. J. ( 1966 ) Micelle formation in mixtures of nonionic and cationic detergents . J. Am. Oil Chem. Soc. 43 , 681 – 682 . 10.1007/BF02682570 . || [32]; doi:10.1016/0021-9797(70)90007-X; Barry B. W.; Morrison J. C.; Russell G. F. ( 1970 ) Prediction of the critical micelle concentration of mixtures of alkyltrimethylammonium salts . J. Colloid Interface Sci. 33 , 554 – 561 . 10.1016/ ||| ref 33, 34 = [33]; PMID 17658541; doi:10.1016/j.jcis.2007.06.010; Rodríguez J. L.; Sierra M. B.; Messina P. V.; Morini M. A.; Schulz P. C.; del Burgo P.; Junquera E.; Rodríguez A.; Aicart E. ( 2007 ) Surface and bulk properties of aqueous decyltrimethylammon || [34]; PMID 25356774; doi:10.1039/C4SM01575D; Pucci C.; Pérez L.; La Mesa C.; Pons R. ( 2014 ) Characterization and stability of catanionic vesicles formed by pseudo-tetraalkyl surfactant mixtures . Soft Matter 10 , 9657 – 9667 . 10.1039/C4SM0; details: cited from earlier work

Row | Compound | CC50 at 24 h (MTT cytotoxicity assay) | IC50 (HIV-1BaL) | stability / aspect of the sample [1] | CMC [2]
1 | CCCCCCCCCCCCCCCCCCNC(=O)CCC(=O)NCCOCCOCCOCCOCCOCCOCCOCCOCCOCCOCCOCCOCCOCCOCCOCCOCCOCCOCCOCCOCCOCCOCCOCCOCCOCCOCCOCCOCCC(=O)NCCCC[C@H](NC(=O)[C@H](Cc1c[nH]c2ccccc12)NC(=O)[C@H](CC(C)C)NC(=O)[C@H](Cc1ccc(O)cc1)NC(=O)[C@H](CCC(=O)O)NC(=O)[C@H](CC(C)C)NC(=O)[C@@H](NC(=O)[C@@H](N)Cc1c[nH]c2ccccc12)[C@@H](C)CC)C(=O)N[C@H](C(=O)N1CCC[C@H]1C(=O)N[C@@H](Cc1ccccc1)C(=O)N[C@@H](CC(=O)O)C(=O)N[C@@H](Cc1ccccc1)C(=O)N[C@@H](Cc1c[nH]c2ccccc12)C(=O)N[C@@H](CCCNC(=N)N)C(=O)NCC(=O)N[C@H](C(=O)N[C@H](C(N)=O)[C@@H](C)CC)C(C)C)C(C)C [K-PAmonoalkyl] (H-WILEYLWK([PEG28-Suc-NHOctadecyl])VPFDFWRGVI-NH2) | 23 µM | 370 nM | milky | –
2 | CC[C@H](C)[C@H](NC(=O)[C@@H](NC(=O)CNC(=O)[C@H](CCCNC(=N)N)NC(=O)[C@H](Cc1c[nH]c2ccccc12)NC(=O)[C@H](Cc1ccccc1)NC(=O)[C@H](CC(=O)O)NC(=O)[C@H](Cc1ccccc1)NC(=O)[C@@H]1CCCN1C(=O)[C@@H](NC(=O)[C@H](CCCCN)NC(=O)[C@H](Cc1c[nH]c2ccccc12)NC(=O)[C@H](CC(C)C)NC(=O)[C@H](Cc1ccc(O)cc1)NC(=O)[C@H](CCC(=O)O)NC(=O)[C@H](CC(C)C)NC(=O)[C@@H](NC(=O)[C@H](Cc1c[nH]c2ccccc12)NC(=O)CCOCCOCCOCCOCCOCCOCCOCCOCCOCCOCCOCCOCCOCCOCCOCCOCCOCCOCCOCCOCCOCCOCCOCCOCCOCCOCCOCCOCCNC(=O)[C@@H](N)CSCC(=O)O[C@H]1CC[C@@]2(C)C(=CC[C@H]3[C@@H]4CC[C@H]([C@H](C)CCCC(C)C)[C@@]4(C)CC[C@@H]32)C1)[C@@H](C)CC)C(C)C)C(C)C)C(N)=O [N-PAchol] (H-C(X2)[PEG28]WILEYLWKVPFDFWRGVI-NH2) | > 40 µM | 120 nM | milky | –
3 | CCCCCCCCCCCCCCCCCCN(CCCCCCCCCCCCCCCCCC)C(=O)CCC(=O)NCCOCCOCCOCCOCCOCCOCCOCCOCCOCCOCCOCCOCCOCCOCCOCCOCCOCCOCCOCCOCCOCCOCCOCCOCCOCCOCCOCCOCCC(=O)N[C@@H](Cc1c[nH]c2ccccc12)C(=O)N[C@H](C(=O)N[C@@H](CC(C)C)C(=O)N[C@@H](CCC(=O)O)C(=O)N[C@@H](Cc1ccc(O)cc1)C(=O)N[C@@H](CC(C)C)C(=O)N[C@@H](Cc1c[nH]c2ccccc12)C(=O)N[C@@H](CCCCN)C(=O)N[C@H](C(=O)N1CCC[C@H]1C(=O)N[C@@H](Cc1ccccc1)C(=O)N[C@@H](CC(=O)O)C(=O)N[C@@H](Cc1ccccc1)C(=O)N[C@@H](Cc1c[nH]c2ccccc12)C(=O)N[C@@H](CCCNC(=N)N)C(=O)NCC(=O)N[C@H](C(=O)N[C@H](C(N)=O)[C@@H](C)CC)C(C)C)C(C)C)[C@@H](C)CC [N-PAdialkyl] ({N(octadecyl)2-Suc-PEG28}-WILEYLWKVPFDFWRGVI-NH2) | > 40 µM | 150 nM | precipitated rather fast and made compact flocks | –
4 | CCCCCCCCCCCCCCCCCCNC(=O)CCC(=O)NCCOCCOCCOCCOCCC(=O)N[C@@H](Cc1c[nH]c2ccccc12)C(=O)N[C@H](C(=O)N[C@@H](CC(C)C)C(=O)N[C@@H](CCC(=O)O)C(=O)N[C@@H](Cc1ccc(O)cc1)C(=O)N[C@@H](CC(C)C)C(=O)N[C@@H](Cc1c[nH]c2ccccc12)C(=O)N[C@@H](CCCCN)C(=O)N[C@H](C(=O)N1CCC[C@H]1C(=O)N[C@@H](Cc1ccccc1)C(=O)N[C@@H](CC(=O)O)C(=O)N[C@@H](Cc1ccccc1)C(=O)N[C@@H](Cc1c[nH]c2ccccc12)C(=O)N[C@@H](CCCNC(=N)N)C(=O)NCC(=O)N[C@H](C(=O)N[C@H](C(N)=O)[C@@H](C)CC)C(C)C)C(C)C)[C@@H](C)CC [PA1PEG3] ({NHOctadecyl-Suc-PEG4}-WILEYLWKVPFDFWRGVI-NH2) | > 40 µM | 230 nM | – | –
5 | CCCCCCCCCCCCCCCCCCN(CCCCCCCCCCCCCCCCCC)C(=O)CCC(=O)NCCOCCOCCOCCOCCC(=O)N[C@@H](Cc1c[nH]c2ccccc12)C(=O)N[C@H](C(=O)N[C@@H](CC(C)C)C(=O)N[C@@H](CCC(=O)O)C(=O)N[C@@H](Cc1ccc(O)cc1)C(=O)N[C@@H](CC(C)C)C(=O)N[C@@H](Cc1c[nH]c2ccccc12)C(=O)N[C@@H](CCCCN)C(=O)N[C@H](C(=O)N1CCC[C@H]1C(=O)N[C@@H](Cc1ccccc1)C(=O)N[C@@H](CC(=O)O)C(=O)N[C@@H](Cc1ccccc1)C(=O)N[C@@H](Cc1c[nH]c2ccccc12)C(=O)N[C@@H](CCCNC(=N)N)C(=O)NCC(=O)N[C@H](C(=O)N[C@H](C(N)=O)[C@@H](C)CC)C(C)C)C(C)C)[C@@H](C)CC [PA2PEG3] ({N(octadecyl)2-Suc-PEG4}-WILEYLWKVPFDFWRGVI-NH2) | > 40 µM | – | – | –
6 | CC[C@H](C)[C@H](NC(=O)[C@@H](NC(=O)CNC(=O)[C@H](CCCNC(=N)N)NC(=O)[C@H](Cc1c[nH]c2ccccc12)NC(=O)[C@H](Cc1ccccc1)NC(=O)[C@H](CC(=O)O)NC(=O)[C@H](Cc1ccccc1)NC(=O)[C@@H]1CCCN1C(=O)[C@@H](NC(=O)[C@H](CCCCN)NC(=O)[C@H](Cc1c[nH]c2ccccc12)NC(=O)[C@H](CC(C)C)NC(=O)[C@H](Cc1ccc(O)cc1)NC(=O)[C@H](CCC(=O)O)NC(=O)[C@H](CC(C)C)NC(=O)[C@@H](NC(=O)[C@H](Cc1c[nH]c2ccccc12)NC(=O)CCOCCOCCOCCOCCNC(=O)[C@@H](N)CSCC(=O)O[C@H]1CC[C@@]2(C)C(=CC[C@H]3[C@@H]4CC[C@H]([C@H](C)CCCC(C)C)[C@@]4(C)CC[C@@H]32)C1)[C@@H](C)CC)C(C)C)C(C)C)C(N)=O [PA3PEG3] (H-C(X2)[PEG4]WILEYLWKVPFDFWRGVI-NH2) | > 40 µM | 2010 nM | – | –
7 | CCCCCCCCCC[N+](C)(C)C.[Br-] [decyl trimethyl ammonium bromide] | – | – | – | 66.8 mM
8 | CCCCCCCCCC[N+](C)(C)CCCCCCCCCC.[Br-] [didecyl dimethyl ammonium bromide] | – | – | – | 1.4 mM
9 | CCCCCCCCCCCC[N+](C)(C)C.[Br-] [dodecyl trimethyl ammonium bromide] | – | – | – | 14.5 mM
10 | CCCCCCCCCCCCCCCC[N+](C)(C)C [hexadecyl trimethyl ammonium bromide] | – | – | – | 0.8 mM
